Results on seven compounds are retold here after US12052991B2, “Substituted pyridinyloxybenzenes and salts thereof and use thereof as herbicidal agents” (Bayer Aktiengesellschaft, priority 2018, dated 2024).

SMILES strings stand for the structures.

What all share (type): in vivo
For data set [1], the system named is Abutilon theophrasti (ABUTH). As to the kind of experiment: Herbicidal pre-emergence action, test D, single sowings (Table D4). The settings on record: dosage 80 g/ha, scored after about 3 weeks. An excerpt: (§1) Seeds of monocotyledonous and dicotyledonous weed plants were laid out in plastic or organic plant pots (single sowings with one species of mono- or dicotyledonous weed plant per pot) and covered with soil. The compounds of the invention, formulated in the form of wettable powders (WP) or as emulsion concentrates (EC), were then applied to the surface of the covering soil as aqueous suspension or emulsion with addition of 0.5% additive at a water application rate equivalent to 600 l/ha (converted). After the treatment, the pots were placed in a greenhouse and kept under good growth conditions for the test plants. After about 3 weeks, the effect of the preparations was scored visually in comparison with untreated controls as percentages. For example, 100% activity=the plants have died, 0% activity=like control plants. Tables D1 to D8 below show the effects of selected compounds of the general formula (I) according to Table 1 on various harmful plants and an application rate corresponding to 80 g/ha, which were obtained by the experimental procedure mentioned above.

Data set [2] relates to soybean (GLXMA, var. Sultana), wheat (TRZAS, var. Triso) and corn (ZEAMX, var. Aventura). As to the kind of experiment: Pre-emergence crop plant compatibility, summary of Table E1. The settings on record: applied pre-emergence to soybean, wheat and corn at 80 g of active ingredient per hectare; summary in words.
From the text: as §1, with “crop” for “weed”, “placed” for “laid out”, “pots” for “pots (single sowings with one species of mono- or dicotyledonous weed plant per pot)”, “plants.” for “plants. Tables D1 to D8 below show the effects of selected compounds of the general formula (I) according to Table 1 on various harmful plants and an application rate corresponding to 80 g/ha, which were obtained by the experimental procedure mentioned above.”

The subject of data set [3] is Amaranthus retroflexus (AMARE). As to the kind of experiment: Herbicidal pre-emergence action, test D, single sowings (Table D5). Conditions: dosage 80 g/ha, scored after about 3 weeks.
From the text: as §1

Data set [4] relates to Digitaria sanguinalis (DIGSA). As to the kind of experiment: Herbicidal pre-emergence action, test D, single sowings (Table D2). The settings on record: 80 g/ha; scored visually after about 3 weeks; 100% = plants have died, 0% = like control plants.
From the text: as §1

Data set [5] relates to Alopecurus myosuroides (ALOMY). Put plainly: Herbicidal pre-emergence action, test D, single sowings (Table D1). Conditions: 80 g/ha; scored visually after about 3 weeks; 100% = plants have died, 0% = like control plants.
From the text: as §1

The test system of data set [6] is soybean (GLXMA, var. Sultana). As to the kind of experiment: Pre-emergence crop plant compatibility (Table E1). Conditions: dosage 80 g/ha, scored after about 3 weeks, 0% = like control plants.
Another data set relates to Veronica persica (VERPE). Put plainly: Herbicidal pre-emergence action, test D, single sowings (Table D8). Conditions: dosage 80 g/ha, scored after about 3 weeks.
From the text: as §1

The subject of another data set is Bassia scoparia (KCHSC). As to the kind of experiment: Herbicidal post-emergence action (Table B11). Conditions: visual rating about 3 weeks after treatment, 100% = plants have died, 0% = like control plants. Summed up:
(§2)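 Greenhouse pot-grown weeds in sandy loam, sprayed at the one-leaf stage (2–3 weeks post-sowing) with WP or EC formulations plus 0.5% additive at 600 l/ha water, at 1280 or 320 g/ha. Visual % activity versus untreated controls rated about 3 weeks later (100% = dead).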

The test system of data set [7] is Alopecurus myosuroides (ALOMY). Put plainly: Herbicidal post-emergence action (Table B9). Conditions: rated visually after about 3 weeks, 100% = plants have died, 0% = like control plants. Summed up:
as §2

As for `Fc1cccc(Oc2ccc(Cl)cn2)c1-c1cc(C(F)F)no1` [Example 1-17], the “Pre-emergence action against Abutilon theophrasti (ABUTH)” value (“Pre-emergence action … (ABUTH)” for short) in data set [1] is given as 100%. The “crop plant tolerance in comparison with structurally similar pyrimidinyloxybenzenes (US 2016/333000 Ex. Nos. 53 and 144)” value (“crop plant tolerance in comparison” for short) in data set [2] was “significantly improved crop plant tolerance”. Further, the “Pre-emergence action against Amaranthus retroflexus (AMARE)” value (“Pre-emergence action … (AMARE)” below) in data set [3] came out at 100%. The “Pre-emergence action against Digitaria sanguinalis (DIGSA)” value (from here on “Pre-emergence action … (DIGSA)”) in data set [4] was determined as 90%. The “Pre-emergence action against Alopecurus myosuroides (ALOMY)” value in data set [5] turned out to be 100%. The “Crop plant compatibility in pre-emergence, GLXMA (damage to soybean)” value (from here on “Crop plant compatibility”) in [6] is given as 20%. Also, the “Pre-emergence action against Veronica persica (VERPE)” value (“Pre-emergence action … (VERPE)” below) with Veronica persica (VERPE) amounted to 100%.

Turning to `Cc1cccc(Oc2ccc(Cl)cn2)c1-c1cc(C(F)F)no1` [Example 1-18, 5-[2-[(5-Chloro-2-pyridyl)oxy]-6-methylphenyl]-3-(difluoromethyl)isoxazole], the “Post-emergence action against Bassia scoparia (KCHSC)” value (“Post-emergence action … (KCHSC)” below) in the data set with Bassia scoparia (KCHSC) (dosage 320 g/ha) and in the data set on Bassia scoparia (KCHSC) (dosage 1280 g/ha) was 100% each time. Moreover, the “Post-emergence action against Alopecurus myosuroides (ALOMY)” value (“Post-emergence action … (ALOMY)” for short) in data set [7] (320 g/ha) and in [7] (1280 g/ha) was 100% throughout.

For `Fc1cc(Cl)cnc1Oc1cccc(F)c1-c1cc(C(F)F)no1` [Example 1-19], the “Pre-emergence action … (ABUTH)” value in data set [1] turned out to be 100%. Besides, the “crop plant tolerance in comparison” value in [2] is recorded as “significantly improved crop plant tolerance”. The “Pre-emergence action … (AMARE)” value in [3] was 100%. In addition, the “Pre-emergence action … (DIGSA)” value in data set [4] was 100%. In addition, the “Pre-emergence action against Alopecurus myosuroides (ALOMY)” value in data set [5] worked out at 100%. In addition, in [6], the “Crop plant compatibility” value was 20%. In the data set with Veronica persica (VERPE), the “Pre-emergence action … (VERPE)” value came to 100%.

Turning to `Cc1cccc(Oc2ncc(Cl)cc2F)c1-c1cc(C(F)F)no1` [Example 1-20], the “Post-emergence action … (KCHSC)” value with Bassia scoparia (KCHSC) (dosage 320 g/ha) and with Bassia scoparia (KCHSC) (dosage 1280 g/ha) was 100% in each case. In addition, the “Post-emergence action … (ALOMY)” value in [7] (320 g/ha) and in [7] (1280 g/ha) was 100% throughout.

For the compound `FC(F)c1cc(-c2ccccc2Oc2ccc(Cl)cn2)on1` [Example 1-35], in [1], the “Pre-emergence action … (ABUTH)” value was 80%. For the same compound, in data set [2], the “crop plant tolerance in comparison” value was “significantly improved crop plant tolerance”. Also, the “Pre-emergence action … (AMARE)” value in data set [3] came to 100%. In data set [4], the “Pre-emergence action … (DIGSA)” value is listed as 100%. For the same compound, the “Post-emergence action … (KCHSC)” value in the data set on Bassia scoparia (KCHSC) (dosage 320 g/ha) and in the data set on Bassia scoparia (KCHSC) (dosage 1280 g/ha) was 100% each time. For the same compound, the “Crop plant compatibility” value in data set [6] was found to be 20%. In addition, the “Pre-emergence action … (VERPE)” value in the data set on Veronica persica (VERPE) worked out at 100%. For the same compound, the “Post-emergence action … (ALOMY)” value in data set [7] (320 g/ha) and in data set [7] (1280 g/ha) was 100% throughout.

Take `Fc1cc(Cl)cnc1Oc1ccccc1-c1cc(C(F)F)no1` [Example 1-36]: in data set [1], the “Pre-emergence action … (ABUTH)” value amounted to 100%. Also, the “crop plant tolerance in comparison” value in [2] was “significantly improved crop plant tolerance”. Further, the “Pre-emergence action … (AMARE)” value in [3] worked out at 100%. In addition, in data set [4], the “Pre-emergence action … (DIGSA)” value is 100%. In addition, the “Post-emergence action … (KCHSC)” value in the data set with Bassia scoparia (KCHSC) (dosage 320 g/ha) and with Bassia scoparia (KCHSC) (dosage 1280 g/ha) was 100% each time. In data set [6], the “Crop plant compatibility” value is given as 10%. The “Pre-emergence action … (VERPE)” value with Veronica persica (VERPE) is reported as 100%. In addition, the “Post-emergence action … (ALOMY)” value in data set [7] (320 g/ha) and in data set [7] (1280 g/ha) was 100% in each case.

For the compound `Fc1cccc(Oc2ccc(Br)cn2)c1-c1cc(C(F)F)no1` [Example 1-40], the “Post-emergence action … (KCHSC)” value with Bassia scoparia (KCHSC) (dosage 320 g/ha) and in the data set with Bassia scoparia (KCHSC) (dosage 1280 g/ha) was 100% throughout. For the same compound, the “Post-emergence action … (ALOMY)” value in [7] (320 g/ha) and in data set [7] (1280 g/ha) was 100% throughout.
